Source: patent EP0532512B1, “USE OF PLATELET ACTIVATING FACTOR ANTAGONISTS AS ANTI-PRURITIC AGENTS” (ALLERGAN, INC., priority 1990, dated 1991)
Where a SMILES comes first, the peptide text is derived from it.

Key:
albino guinea-pig eye = assay: Pruritogenic activity of autocoids: topical drop to the eye (conjunctiva), scratching episodes counted over 15 minutes; type: in vivo; conditions: for NO OF SCRATCH EPISODES (X̄ ± SEM): 15 minutes, n=12; for pruritogenic activity (in words): summary of Table 1
Text: (§1) A more complete appreciation of the invention may be obtained from the following Examples. As a means of providing an atraumatic experimental model of itching, the conjunctiva was used as a convenient tissue site. Pruritogenic agents may be administered to the conjunctiva without the need to traumatize the tissue by injection or scarification. The itch sensation is elicited peripherically by local, atraumatic application of the pruritogen. Of equal importance is the ability of this model to identify locally acting anti-pruritic agents without concerns regarding local tissue trauma or, in the case of systemically administered agents, sedation.
(§2) The pruritogenic activity of numerous and structurally diverse autocoids was examined as follows. A 20 µl drop of a solution of the particular autocoid under evaluation was topically administered to one albino guinea-pig eye, the contralateral eye received 20 µl of vehicle as a control. For PAF studies, the R=15 version of formula I was used and was taken up in 0.5% ultrapure bovine serum albumin. The guinea pig was then replaced in its cage and the number of scratching episodes was recorded over the 15 subsequent minute period. The retention of the experimental animal in familiar surroundings is an important factor in experimental design. Scratching, which is the typical mammalian behavioral response to the itch sensation, provides an indication of the intensity of the perceived itch sensation and can be quantified by recording the frequency at which itch-scratch episodes occur per unit time: 15 minutes in the case of these examples.

[1] = tested on: experimental allergic itching; assay: Experimental allergic itching: conjunctival antigen (chicken ovalbumin) challenge in presensitized animals after pretreatment; type: in vivo; conditions: n=8-10
Text: as §1
In addition to pharmacological studies on pruritogenic autocoids, the conjunctiva may be used as a convenient site for modelling diseases where itching is a major symptom. In animals presensitized to a particular antigen, subsequent topical challenge with that antigen results in conjunctival itching. This may be regarded as an experimental model of itching which has general relevance to clinically encountered pruritus. In the studies described herein, chicken ovalbumin was used as an antigenic substance and the ability of PAF antagonist pretreatment to block the itching response was examined (Table 3).

PAF induced pruritus = assay: Attenuation of PAF induced pruritus by 30 minute topical pretreatment (conjunctival itch-scratch model); type: in vivo, guinea-pig; conditions: for scratch episodes, TREATED GROUP (mean ± SEM): 30 minute topical pretreatment, n=12
Text: as §1, §2
The ability of a 30 minute topical pretreatment with selected PAF antagonists to attenuate PAF induced pruritus is shown in Table 2.

[2] = dose 10 μg, 20 µl drop topically to one eye
[3] = dose 100 μg, 20 µl drop topically to one eye

CCCCC/C=C\C/C=C\C/C=C\C=C\C(O)CCCC(=O)O (stereo not shown) [5-Hydroxytetraemoic Acid]
NO OF SCRATCH EPISODES (X̄ ± SEM) (albino guinea-pig eye; [2]): 0.33 ± 0.22

CC(=O)O [10mM ACETIC ACID, ACETIC ACID]
NO OF SCRATCH EPISODES (X̄ ± SEM) (albino guinea-pig eye; pain producing stimulus solution, no dose printed (--)): 0.42 ± 0.19
pruritogenic activity (in words) (albino guinea-pig eye): virtual absence of an itch-scratch response

CCCCC/C=C\CC(O)/C=C/C=C\C/C=C\CCCC(=O)O (stereo not shown) [12-Hydroxytetraemoic Acid]
NO OF SCRATCH EPISODES (X̄ ± SEM) (albino guinea-pig eye; [2]): 0.08 ± 0.08

CCCCCC(O)/C=C/C=C\C/C=C\C/C=C\CCCC(=O)O (stereo not shown) [15-Hydroxytetraemoic Acid]
NO OF SCRATCH EPISODES (X̄ ± SEM) (albino guinea-pig eye; [2]): 0.08 ± 0.08

CCCCCCCCCCCCCCCCCCNC(=O)OCC(COC(=O)N(Cc1cccc[n+]1CC)C(C)=O)OC (stereo not shown) [Compound of formula (II)]
scratch episodes, TREATED GROUP ([1]; 1 mg/ml pretreatment vs 100 µG antigen): 7.62 ± 0.96
scratch episodes, TREATED GROUP (mean ± SEM) (PAF induced pruritus; 10 mg/ml, vs 1 µg PAF): 2.67 ± 0.68
scratch episodes, TREATED GROUP (mean ± SEM) (PAF induced pruritus; 10 mg/ml, vs 10 µg PAF): 6.50 ± 1.09

CC1C(=O)OC2C(O)C34C5CC(C(C)(C)C)C36C(OC(=O)C6O)OC4(C(=O)O5)C12O (stereo not shown) [Compound of formula (III), Ginkgolide B]
scratch episodes, TREATED GROUP ([1]; 10 mg/ml pretreatment vs 100 µG antigen): 6.87 ± 1.61
scratch episodes, TREATED GROUP (mean ± SEM) (PAF induced pruritus; 10 mg/ml, vs 10 µg PAF): 8.42 ± 1.37

Cc1nnc2n1-c1sc(CCC(=O)N3CCOCC3)cc1C(c1ccccc1Cl)=NC2 [Compound of formula (IV)]
scratch episodes, TREATED GROUP ([1]; 10 mg/ml pretreatment vs 10 µG antigen): 5.00 ± 1.10
scratch episodes, TREATED GROUP (mean ± SEM) (PAF induced pruritus; 5 mg/ml, vs 1 µg PAF): 0.33 ± 0.19
scratch episodes, TREATED GROUP (mean ± SEM) (PAF induced pruritus; 5 mg/ml, vs 10 µg PAF): 5.25 ± 0.98

C[C@H](N)C(=O)NCC(=O)N[C@@H](CO)C(=O)N[C@@H](CCC(=O)O)C(=O)O [L-alanylglycyl-L-seryl-L-glutamic acid] (H-AGSE-OH)
NO OF SCRATCH EPISODES (X̄ ± SEM) (albino guinea-pig eye; dose 1000 μg, 20 µl drop topically to one eye): 1.42 ± 0.47

CC(C)[C@H](N)C(=O)NCC(=O)N[C@@H](CC(=O)O)C(=O)N[C@@H](CCC(=O)O)C(=O)O [L-valylglycyl-L-aspartyl-L-glutamic acid] (H-VGDE-OH)
NO OF SCRATCH EPISODES (X̄ ± SEM) (albino guinea-pig eye; [3]): 0.92 ± 0.26

CCCCC/C=C\C[C@@H](O)/C=C/C=C/C=C\[C@@H](O)CCCC(=O)O [LEUKOTRIENE B4]
NO OF SCRATCH EPISODES (X̄ ± SEM) (albino guinea-pig eye; [2]): 0.42 ± 0.23

CCCCC/C=C\C\C=C/C=C/C=C/[C@@H](SC[C@H](NC(=O)CC[C@H](N)C(=O)O)C(=O)NCC(=O)O)[C@@H](O)CCCC(=O)O [LEUKOTRIENE C4]
NO OF SCRATCH EPISODES (X̄ ± SEM) (albino guinea-pig eye; [2]): 0.58 ± 0.36

CCCCCCCCCCCCCCCCOC[C@@H](O)COP(=O)([O-])OCC[N+](C)(C)C [LYSO-PAF]
NO OF SCRATCH EPISODES (X̄ ± SEM) (albino guinea-pig eye; dose 1 μg, 20 µl drop topically to one eye): 0.92 ± 0.26
NO OF SCRATCH EPISODES (X̄ ± SEM) (albino guinea-pig eye; [2]): 2.67 ± 0.73
NO OF SCRATCH EPISODES (X̄ ± SEM) (albino guinea-pig eye; [3]): 13.0 ± 1.58
pruritogenic activity (in words) (albino guinea-pig eye): relatively weak activity

CCCCCCCCCCCCCCCCOCC(COP(=O)([O-])OCC[N+](C)(C)C)OC(C)=O (stereo not shown) [PAF, 1-O-alkyl-2-acetyl-sn-glycero-3-phosphocholine]
pruritogenic activity (in words) (albino guinea-pig eye): most potent pruritogenic agent

CCCCC[C@H](O)/C=C/[C@@H]1[C@@H](C/C=C\CCCC(=O)O)[C@@H](O)C[C@H]1O [PROSTAGLANDIN F2α]
NO OF SCRATCH EPISODES (X̄ ± SEM) (albino guinea-pig eye; [3]): 1.75 ± 0.37

COc1ccc(CN(CCN(C)C)c2ccccn2)cc1 [Pyrilamine]
scratch episodes, TREATED GROUP (mean ± SEM) (PAF induced pruritus; 0.1 mg/ml, vs 1 µg PAF): 4.17 ± 0.91
scratch episodes, TREATED GROUP (mean ± SEM) (PAF induced pruritus; 0.1 mg/ml, vs 10 µg PAF): 14.25 ± 1.75
block of PAF induced pruritus (in words) (PAF induced pruritus; summary of Table 2): not

Bradykinin (RPPGFSPFR; Bradykinin; UniProt P01042 381-389, looked up)
NO OF SCRATCH EPISODES (X̄ ± SEM) (albino guinea-pig eye; [2]): 0.50 ± 0.23
NO OF SCRATCH EPISODES (X̄ ± SEM) (albino guinea-pig eye; [3]): 4.00 ± 0.90
